Test results published in patent publication US6177422A (Warner-Lambert Company, priority 1998, dated 2001).

Molecular target: T1, human recombinant dopamine D4.2 receptor (Homo sapiens, UniProt P21917, DEL265-296)
T1 construct: expressed in transfected cells
T1 sequence (P21917 with tags, fused parts or gaps DEL265-296): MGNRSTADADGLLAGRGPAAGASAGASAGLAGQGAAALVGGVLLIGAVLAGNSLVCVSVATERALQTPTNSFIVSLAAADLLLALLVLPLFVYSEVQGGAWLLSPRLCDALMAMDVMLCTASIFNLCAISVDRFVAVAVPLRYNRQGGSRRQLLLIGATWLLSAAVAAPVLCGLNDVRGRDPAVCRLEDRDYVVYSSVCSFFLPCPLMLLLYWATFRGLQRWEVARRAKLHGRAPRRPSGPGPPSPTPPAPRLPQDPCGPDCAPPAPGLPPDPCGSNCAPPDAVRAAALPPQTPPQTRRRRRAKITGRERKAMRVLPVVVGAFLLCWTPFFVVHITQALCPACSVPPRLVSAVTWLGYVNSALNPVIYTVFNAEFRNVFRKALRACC
Assay: [3H]spiperone receptor binding assay, human dopamine D4.2, CHO K1 cell membranes

| Ki | SMILES |
| --- | --- |
| 2.84 nM | Cc1ccc(C2CCN(Cc3ccc4c(c3)NC(=O)CO4)CC2)cc1 [Example 16, 6-(4-p-Tolyl-piperidin-1-ylmethyl)-4H-benzo[1,4]oxazin-3-one] |
| 173 nM | O=C1COc2ccc(CN3CCN(c4ccc(C(F)(F)F)cc4)CC3)cc2N1 [Example 31, 6-[4-(4-Trifluoromethyl-phenyl)-piperazin-1-ylmethyl]-4H-benzo[1,4]oxazin-3-one] |
